{"source": "patent US9550802B2", "about": "“Anti-inflammatory macrolides” (priority 2012, dated 2017)", "key": {"[1]": {"experiment": "Titration of macrolide with organic acid in saline", "format": "physicochemical", "conditions": "for End conc. macrolide: after titration; for Vol. Added (mL) Score = 4: acid solution 10 mg/mL in saline added until fully dissolved", "experimental": "After each addition, the mixture or solution was placed in the ultrasonic bath for 10 minutes followed by agitation for an additional 10 minutes. The mixtures were given a visual score depending on the presence of precipitate in the mixture (0 to 4, 0 being undissolved and 4 being fully-dissolved) and the pH of the supernatant fluid was measured."}, "[2]": {"experiment": "Maximum solubility determination of organic salts in saline", "format": "physicochemical", "conditions": "for Visual Score: score 0 to 4", "experimental": "The mixtures were given a visual score depending on the presence of precipitate in the mixture (Score ranges from 0 to 4, with 0 showing undissolved solid precipiate and 4 being fully-dissolved). Solubility of the salts was tested in 10 mM, 100 mM, 500 mM and 1M."}, "[3]": {"system": "CF human primary airway epithelial cells (CF hAEC)", "experiment": "Stimulation of chloride release (Cl efflux, SPQ fluorescence) in cystic fibrosis cells", "format": "cell-based", "conditions": "10 μM; CF hAEC or non-CF (S9) cells", "experimental": "CF human primary airway epithelial cells (CF hAEC) on non-CF (S9) were cultured in the presence of compound 1 or azithromycin 10 μM. Cl efflux was monitored by fluorescence of [6-methoxy-N-(3-sulfopronyl)-quinolinium (SPQ)."}, "[4]": {"conditions": "macrolide (not named) + acid equivalent of organic acid in saline, 100 mM"}, "[5]": {"conditions": "macrolide (not named) + acid equivalent of organic acid in saline, 500 mM"}, "[6]": {"conditions": "macrolide (not named) + acid equivalent of organic acid in saline, 1M"}}}
{"compound": "O=C(O)CCCCCCC(=O)O", "note": "[subaric acid]", "values": [{"measurement": "Amt acid added to dissolve", "setting": "[1]; 10 mM COMPOUND 1 in saline", "result": 8.30, "unit": "mg"}, {"measurement": "Amt corr. to mol eq.", "setting": "[1]; 10 mM COMPOUND 1 in saline", "result": 8.30, "unit": "mg"}, {"measurement": "mol. eq. acid (minimum mole equivalence of acid needed to dissolve)", "setting": "[1]; 10 mM COMPOUND 1 in saline", "result": 1.05, "unit": "mol. eq."}, {"measurement": "End conc. macrolide", "setting": "[1]; COMPOUND 1 in saline", "result": 10.0, "unit": "mM"}, {"measurement": "End conc. macrolide", "setting": "[1]; azithromycin in saline", "result": 10.0, "unit": "mM"}, {"measurement": "Amt acid added to dissolve", "setting": "[1]; azithromycin, 10 mM in saline", "result": 6.70, "unit": "mg"}, {"measurement": "Amt corr. to mol eq.", "setting": "[1]; azithromycin, 10 mM in saline", "result": 6.70, "unit": "mg"}, {"measurement": "mol. eq. acid (minimum mole equivalence of acid needed to dissolve)", "setting": "[1]; azithromycin, 10 mM in saline", "result": 0.70, "unit": "mol. eq."}, {"measurement": "pH", "setting": "[2]; macrolide (not named) + acid equivalent of organic acid in saline (0.9% aq. NaCl), 10 mM", "result": 6.8}, {"measurement": "Visual Score", "setting": "[2]; macrolide (not named) + acid equivalent of organic acid in saline, 10 mM", "result": 4}, {"measurement": "pH", "setting": "[2]; [4]", "result": 5.5}, {"measurement": "Visual Score", "setting": "[2]; [4]", "result": 4}, {"measurement": "pH", "setting": "[2]; [5]", "result": 8.0}, {"measurement": "Visual Score", "setting": "[2]; [5]", "result": 4}, {"measurement": "pH", "setting": "[2]; [6]", "result": 10.0}, {"measurement": "Visual Score", "setting": "[2]; [6]", "result": 2}]}
{"compound": "O=C(O)CC(=O)C(=O)O", "note": "[oxaloacetatic acid]", "values": [{"measurement": "Amt acid added to dissolve", "setting": "[1]; 10 mM COMPOUND 1 in saline", "result": 4.00, "unit": "mg"}, {"measurement": "Amt corr. to mol eq.", "setting": "[1]; 10 mM COMPOUND 1 in saline", "result": 4.00, "unit": "mg"}, {"measurement": "mol. eq. acid (minimum mole equivalence of acid needed to dissolve)", "setting": "[1]; 10 mM COMPOUND 1 in saline", "result": 0.64, "unit": "mol. eq."}, {"measurement": "Vol. Added (mL) Score = 4", "setting": "[1]; 10 mM COMPOUND 1 in saline", "result": 0.40, "unit": "mL"}, {"measurement": "End conc. macrolide", "setting": "[1]; COMPOUND 1 in saline", "result": 9.2, "unit": "mM"}, {"measurement": "End conc. macrolide", "setting": "[1]; azithromycin in saline", "result": 8.7, "unit": "mM"}, {"measurement": "Amt acid added to dissolve", "setting": "[1]; azithromycin, 10 mM in saline", "result": 8.00, "unit": "mg"}, {"measurement": "Amt corr. to mol eq.", "setting": "[1]; azithromycin, 10 mM in saline", "result": 8.00, "unit": "mg"}, {"measurement": "mol. eq. acid (minimum mole equivalence of acid needed to dissolve)", "setting": "[1]; azithromycin, 10 mM in saline", "result": 1.10, "unit": "mol. eq."}, {"measurement": "Vol. Added (mL) Score = 4", "setting": "[1]; azithromycin, 10 mM in saline", "result": 0.80, "unit": "mL"}]}
{"compound": "CC[C@H]1OC(=O)[C@H](C)[C@@H](O[C@H]2C[C@@](C)(OC)[C@@H](O)[C@H](C)O2)[C@H](C)[C@@H](O[C@@H]2O[C@H](C)C[C@H](N(C)C)[C@H]2O)[C@](C)(O)C[C@@H](C)CN(C)[C@H](C)[C@@H](O)[C@]1(C)O", "note": "[azithromycin]", "values": [{"measurement": "Cl efflux as determined by fluorescence change (SPQ)", "setting": "[3]", "result": "stimulate Cl efflux"}]}
